Measurements: US3996359A, “Novel stereoisomeric component A of stereoisomeric mixtures of 2'-unsymmetrical 16,17-methylenedioxy steroid 21-acylates, compositions thereof, and method of treating therewith” (AB Bofors, priority 1972, dated 1976)

Tested on: rats subjected to adrenalectomy (granuloma around implanted cotton wads)
Assay: granulom test (cotton-pellet test) on rats subjected to adrenalectomy: granuloma growth, thymus weight, body weight increase
Type: in vivo, rat (Sprague-Dawley)
Details: for Dose required to obtain 50% inhibition of Granuloma growth: Table 3, adrenalectomized young male Sprague-Dawley rats, topical in implanted cotton wads, day 8; for Dose required to obtain 25% inhibition of Body weight Increase / Dose required to obtain 50% inhibition of Thymus weight: 11520 min
Text: In the following this active stereoisomeric component will always be designated B. As regards the steroids referred to in connection with the present invention the stereoisomeric mixture as well as the individual stereoisomeric components A and B have been investigated with regard to antiinflammatory activity in granulom test on rats subjected to adrenalectomy. The experimental procedure used corresponds largely to that described by G. Engelhardt: Arzneimittel-Forschung, 13, p. 588, 1963. According to this procedure the test substances are applied topically in the implanted cottom wads. It is thereby possible to study the local antiinflammatory effect in granulomas and also systemic effects in the form of retrogression of thymus and inhibition of bodyweight growth.
Young male rats of the Sprague-Dawley strain weighing about 110-130 g were subjected to adrenalectomy under ether narcosis. Two sterilized cottom wads of each about 6 mg were implanted simultaneously subcutaneously on the lateral side of the spinal. After awakening the animals were stored 5 per cage and were supplied with normal food and 1% sodium chloride solution as drinking water. On the eighth test day the animals were sacrificed by ether narcosis. The granuloma formed around the cotton wads were carefully recovered and thymus and body weights were measured. The two granuloma from each animal were dried over night at 80° C and weighed. After subtraction of the initial weight of the cotton wads the weight increase was used as a measure of the granulom growth.
The test substances were used dissolved in ethyl acetate. Under aseptic conditions 0.05 ml of said solutions were injected into each of the cotton wads, whereafter the solvent was allowed to evaporate in the desiccator. Normally 3 concentrations of each test substance with the standard doses 3.3, 30 and 270 γ/animal were investigated. Each test group normally comprised 10 rats. The cotton wads of the control group were injected with only ethyl acetate, but were in other respects treated in the same way. When considering the effects of the test substances the average values of granulom growth, thymus weight and body weight increase day 0-8 were measured in each group in absolute figures and in % of the corresponding figure of the control group. Dose-response curves were drafted and used for estimating the doses giving 50 % reduction of granulom growth and of thymus weight and 25 % decrease of body weight increase.
The following Table 4 discloses the results of the cotton-pellet test hereinbefore described, giving in addition figures for the therapeutic ratios, that is, the ratios of the ED50 for thymus weight inhibition divided by the ED50 for granuloma formation inhibition, and the ED25 for body weight increase inhibition over the ED50 for granuloma formation inhibition. As will be recognized, the higher the number for the therapeutic ratio, the more favorable the therapeutic ratio. […] As will be noted for the table, the therapeutic ratio for thymus over granuloma for the Component A esters is 4.2, 7.1, 4.5, 2.6, 2.2, 1.7, 2.5 and 1.7 times as good as it is for the corresponding Component B ester isomer, whereas the therapeutic ratio for the Component A ester isomer as far as body weight is granuloma 2.7, 3.3, 9.8, 6.4, 2.3, 2.8, 3.3 and 2.8 times as favorable as for the corresponding Component B ester isomer.

[1] = Table 4, ED25 body weight increase inhibition over ED50 granuloma formation inhibition
[2] = Table 4, ED50 thymus weight inhibition divided by ED50 granuloma formation inhibition

SMILES | Dose required to obtain 50% inhibition of Granuloma growth | Dose required to obtain 25% inhibition of Body weight Increase (rat, in vivo) | Dose required to obtain 50% inhibition of Thymus weight (rat, in vivo) | Therapeutic ratio body weight/granuloma [1] | Therapeutic ratio thymus/granuloma [2] | ED25 body weight increase inhibition (rat, in vivo) [µg/animal] | ED50 thymus weight inhibition (rat, in vivo) [µg/animal] | Therapeutic ratio body weight/granuloma (rat, in vivo) | Therapeutic ratio thymus/granuloma (rat, in vivo)
CCC1OC2CC3C4CCC5=CC(=O)C=CC5(C)C4(F)C(O)CC3(C)C2(C(=O)CO)O1 (mixture of isomers) [2 A+B] | 35 γ/animal | 140 γ/animal | 100 γ/animal |  |  |  |  |  | 
CC1O[C@@H]2C[C@H]3[C@@H]4CCC5=CC(=O)C=C[C@]5(C)[C@@]4(F)[C@@H](O)C[C@]3(C)[C@]2(C(=O)COC(=O)c2cc3ccccc3o2)O1 (some centres unmarked) [16 A] | 5 γ/animal | > 45 γ/animal | 70 γ/animal | > 9.0 | 14.0 | > 45 | 70 |  | 
CC1O[C@@H]2C[C@H]3[C@@H]4CCC5=CC(=O)C=C[C@]5(C)[C@@]4(F)[C@@H](O)C[C@]3(C)[C@]2(C(=O)COC(=O)c2cccnc2)O1 (single isomer, unassigned) [17 A] | 7 γ/animal | 20 γ/animal | 45 γ/animal |  |  |  |  |  | 
CCCCCC1OC2CC3C4CCC5=CC(=O)C=CC5(C)C4(F)C(O)CC3(C)C2(C(=O)CO)O1 (mixture of isomers) [5 A+B] | 17 γ/animal | > 270 γ/animal | 130 γ/animal |  |  |  |  |  | 
CCCC1O[C@@H]2C[C@H]3[C@@H]4CCC5=CC(=O)C=C[C@]5(C)[C@H]4[C@@H](O)C[C@]3(C)[C@]2(C(=O)CO)O1 (single isomer, unassigned) [12 B] | 40 γ/animal | 50 γ/animal | 70 γ/animal |  |  |  |  |  | 
CCCCCC1O[C@@H]2C[C@H]3[C@@H]4CCC5=CC(=O)C=C[C@]5(C)[C@@]4(F)[C@@H](O)C[C@]3(C)[C@]2(C(=O)CO)O1 (single isomer, unassigned) [5 A] | 30 γ/animal | > 270 γ/animal | 90 γ/animal |  |  |  |  |  | 
CC1(C)O[C@@H]2C[C@H]3[C@@H]4CCC5=CC(=O)C=C[C@]5(C)[C@H]4[C@@H](O)C[C@]3(C)[C@]2(C(=O)CO)O1 [Prednacinolone acetonide, reference compound] | 270 γ/animal | > 270 γ/animal | 105 γ/animal |  |  |  |  |  | 
CCCC1OC2CC3C4CCC5=CC(=O)C=CC5(C)C4(F)C(O)CC3(C)C2(C(=O)COC(=O)c2cccnc2)O1 (mixture of isomers) [21 A+B] | 7 γ/animal | 10 γ/animal | 35 γ/animal |  |  |  |  |  | 
CCCC1OC2CC3C4CCC5=CC(=O)C=CC5(C)C4C(O)CC3(C)C2(C(=O)COC(C)=O)O1 (mixture of isomers) [27 A+B] | < 3 γ/animal | 40 γ/animal | 60 γ/animal |  |  |  |  |  | 
CCCCC(=O)OCC(=O)[C@@]12OC(C)O[C@@H]1C[C@H]1[C@@H]3CCC4=CC(=O)C=C[C@]4(C)[C@@]3(F)[C@@H](O)C[C@@]12C (single isomer, unassigned) [18 B] | < 3 γ/animal | 10 γ/animal | 10 γ/animal |  |  | 10 | 10 | > 3.3 | > 3.3
CCCC1O[C@@H]2C[C@H]3[C@@H]4CCC5=CC(=O)C=C[C@]5(C)[C@H]4[C@@H](O)C[C@]3(C)[C@]2(C(=O)COC(=O)c2cc3ccccc3o2)O1 (single isomer, unassigned) [28 A] |  |  |  |  |  | 100 | 100 | > 33.3 | > 33.3
CCCC1O[C@@H]2C[C@H]3[C@@H]4CCC5=CC(=O)C=C[C@]5(C)[C@@]4(F)[C@@H](O)C[C@]3(C)[C@]2(C(=O)CO)O1 (single isomer, unassigned) [3 A] | 25 γ/animal | > 30 γ/animal | > 30 γ/animal |  |  |  |  |  | 
CCCC1O[C@@H]2C[C@H]3[C@@H]4C[C@H](F)C5=CC(=O)C=C[C@]5(C)[C@@]4(F)[C@@H](O)C[C@]3(C)[C@]2(C(=O)COC(=O)c2cc3ccccc3o2)O1 (single isomer, unassigned) [25 B] | < 3 γ/animal | 20 γ/animal | 7 γ/animal |  |  | 20 | 7 | > 2.9 | > 2.3
CCCC1O[C@@H]2C[C@H]3[C@@H]4C[C@H](F)C5=CC(=O)C=C[C@]5(C)[C@@]4(F)[C@@H](O)C[C@]3(C)[C@]2(C(=O)CO)O1 (single isomer, unassigned) [8 A] | 6 γ/animal | 50 γ/animal | 13 γ/animal |  |  |  |  |  | 
CC1O[C@@H]2C[C@H]3[C@@H]4C[C@H](F)C5=CC(=O)C=C[C@]5(C)[C@@]4(F)[C@@H](O)C[C@]3(C)[C@]2(C(=O)CO)O1 (single isomer, unassigned) [7 B] | 10 γ/animal | 15 γ/animal | 6 γ/animal |  |  |  |  |  | 
CC1O[C@@H]2C[C@H]3[C@@H]4CCC5=CC(=O)C=C[C@]5(C)[C@@]4(F)[C@@H](O)C[C@]3(C)[C@]2(C(=O)CO)O1 (single isomer, unassigned) [1 B] | 30 γ/animal | 30 γ/animal | 50 γ/animal |  |  |  |  |  | 
CCCCCC1O[C@@H]2C[C@H]3[C@@H]4CCC5=CC(=O)C=C[C@]5(C)[C@H]4[C@@H](O)C[C@]3(C)[C@]2(C(=O)CO)O1 (some centres unmarked) [13 A+B] | 10 γ/animal | 90 γ/animal | 175 γ/animal |  |  |  |  |  | 
CCCC1O[C@@H]2C[C@H]3[C@@H]4CCC5=CC(=O)C=C[C@]5(C)[C@H]4[C@@H](O)C[C@]3(C)[C@]2(C(=O)CO)O1 (some centres unmarked) [12 A+B] | 100 γ/animal | 80 γ/animal | 80 γ/animal |  |  |  |  |  | 
CCC1O[C@@H]2C[C@H]3[C@@H]4CCC5=CC(=O)C=C[C@]5(C)[C@@]4(F)[C@@H](O)C[C@]3(C)[C@]2(C(=O)CO)O1 (single isomer, unassigned) [2 B] | 10 γ/animal | 100 γ/animal | 60 γ/animal |  |  |  |  |  | 
CCCCC1O[C@@H]2C[C@H]3[C@@H]4CCC5=CC(=O)C=C[C@]5(C)[C@@]4(F)[C@@H](O)C[C@]3(C)[C@]2(C(=O)CO)O1 (single isomer, unassigned) [4 B] | < 3 γ/animal | 100 γ/animal | 50 γ/animal |  |  |  |  |  | 
CC1O[C@@H]2C[C@H]3[C@@H]4C[C@H](F)C5=CC(=O)C=C[C@]5(C)[C@@]4(F)[C@@H](O)C[C@]3(C)[C@]2(C(=O)COC(=O)c2cc3ccccc3o2)O1 (some centres unmarked) [23 B] |  |  |  | > 1.0 | > 1.3 | 3 | 4 |  | 
CCCCCC1O[C@@H]2C[C@H]3[C@@H]4CCC5=CC(=O)C=C[C@]5(C)[C@H]4[C@@H](O)C[C@]3(C)[C@]2(C(=O)CO)O1 (single isomer, unassigned) [13 A] | 8 γ/animal | 100 γ/animal | > 270 γ/animal |  |  |  |  |  | 
